# According to patent US20030134774A1, “Methods for inhibiting cardiac disorders” (priority 2001, published 2003):
# Columns and labels:
# [1] = test system: ERK1/2; experiment: Phospho-ERK1/2 Western blot in cardiomyocytes; type: cell-based, rat; conditions: cardiomyocytes; for effect on ERK phosphorylation/activation by rPMT: rPMT 400 ng/ml 24 hr
# Experimental: (§1) rPMT promotes the activation of ERK1/2, JNK and p38-MAPK cascades. Incubations were for 24 hr in the presence of the indicated concentrations of rPMT. PMA (100 nM, 5 min) and sorbitol ([…], 5 min) were included as positive controls. Cell lysates were subjected to SDS-PAGE followed by Western blotting as described in Methods below. Phosphorylated forms of ERK1/2 (A), p38 MAP kinase (B) or JNK (C) were detected by specific anti-phospho-ERK1/2, -p38 MAP kinase or -JNK antibodies, respectively. Blots were stripped and subjected to immunoblot analysis with total ERK1/2 or p38 MAP kinase to normalize for minor variations in protein loading (Panels A and B). Top: representative autoradiograms (with each lane from a single gel exposed for the same duration). Bottom: quantification of each series of experiments (n=3).
# (§2) rPMT transactivation of the EGF receptor in cardiac fibroblasts, but not cardiomyocytes. Neonatal rat cardiomyocytes (Panel A) and cardiac fibroblasts (Panel B) were treated with rPMT (400 ng/ml) for 24 hr or EGF (50 ng/ml) for 5 min without or with AG1478 (2 μM, starting 30 min prior to stimulation). Cell lysates were subjected to SDS-PAGE followed by Western blotting with the anti-phospho-ERK1/2 antibody. Data are from a representative gel, with similar results obtained in 3 separate experiments.
# Specific immunoreactivity for individual PKC isoforms was quantified according to methods described previously. For assays of MAPKs and AKT, cells were exposed to test agents as indicated in individual experimental protocols, washed three times with ice-cold calcium/magnesium-free Dulbecco's PBS (pH 7.1), scraped into ice-cold extraction buffer [20 mM β-glycerophosphate pH 7.5, 20 mM sodium fluoride, 2 mM EDTA, 0.2 mM sodium vanadate, 10 μg/ml aprotinin, 25 μg/ml leupeptin, 50 μg/ml PMSF, and 0.3% (v/v) β-mercaptoethanol], lysed by sonication, and centrifuged at 10,000 g for 10 min at 4° C. […] Bands were detected by enhanced chemiluminescence and blots were quantified by laser scanning densitometry.
# [2] = test system: ERK1/2 in cardiac fibroblasts; experiment: Phospho-ERK1/2 Western blot in cardiac fibroblasts; type: cell-based, rat; conditions: AG1478 2 μM
# Experimental: as §2
# Cardiac myocytes were dissociated from the ventricles of two-day-old Wistar rats by a trypsin digestion protocol which incorporates a differential attachment procedure to enrich for cardiac myocytes, as described previously (13). For some experiments, attached cells were maintained as fibroblast cultures. For studies of inositol phosphates, MAPKs, AKT, and PKC cardiomyocytes were plated at a density of 5×10^5 cells per ml (2 ml per 35-mm dish; 1 ml per 22.1-mm dish) and were cultured in MEM supplemented with 10% fetal calf serum. […]
# (§3) Specific immunoreactivity for individual PKC isoforms was quantified according to methods described previously. […] Bands were detected by enhanced chemiluminescence and blots were quantified by laser scanning densitometry.
# [3] = test system: AKT; experiment: Phospho-AKT and total AKT Western blot in cardiomyocytes; type: cell-based, rat; conditions: for basal AKT phosphorylation after acute treatment: PMA 100 nM, NE 10 μM
# Experimental: rPMT decreases basal AKT phosphorylation and prevents its phosphorylation by EGF. Neonatal rat cardiomyocytes were treated with rPMT (400 ng/ml) for 24 hr (Panel A), 48 hr (Panel B) or with EGF (50 ng/ml) for 5 min. Cell lysates were subjected to SDS-PAGE followed by Western blotting with antibodies that recognize the phosphorylated form or total AKT. Data are from representative gels, with similar results obtained in 3 separate experiments.
# Panel A: Cells were treated with norepinephrine (NE, 10 μM) or PMA (100 nM) for 5 min without or with GF109203 (5 μM).
# Panel B: Cells were treated with rPMT (400 ng/ml), NE (10 μM) or PMA (100 nM) for 24 hr without or with Go6983 (5 μM). […] Cell lysates were subjected to SDS-PAGE followed by Western blotting using a specific anti-phospho-AKT antibody. Data are from representative gels, with similar results obtained in 3 separate culture preparations.
# (§4) Specific immunoreactivity for individual PKC isoforms was quantified according to methods described previously. For assays of MAPKs and AKT, cells were exposed to test agents as indicated in individual experimental protocols, washed three times with ice-cold calcium/magnesium-free Dulbecco's PBS (pH 7.1), scraped into ice-cold extraction buffer [20 mM β-glycerophosphate pH 7.5, 20 mM sodium fluoride, 2 mM EDTA, 0.2 mM sodium vanadate, 10 μg/ml aprotinin, 25 μg/ml leupeptin, 50 μg/ml PMSF, and 0.3% (v/v) β-mercaptoethanol], lysed by sonication, and centrifuged at 10,000 g for 10 min at 4° C. The supernatant was diluted in SDS-PAGE sample buffer, boiled for 5 min, and stored at −70° C. Western blot analysis was performed with antibodies that are selective for the phosphorylated (activated) forms of ERK1/2, p38-MAPK, JNK, AKT, and pan-PKC according to manufacturer's instructions. For each panel in each Figure, the results are from a single gel exposed for a uniform duration. Bands were detected by enhanced chemiluminescence and blots were quantified by laser scanning densitometry.
# [4] = target: T1, PKC-ε (Rattus norvegicus, UniProt P09216); experiment: Western blot with anti-phospho-PKC antibody in cardiomyocytes; type: cell-based; conditions: for PKC-ε phosphorylation/activation (phospho-PKC band pattern): NE 10 μM or PMA 100 nM for 5 min
# T1 construct: PKCε is detected as a single band in quiescent cardiomyocytes; endogenous in cells; host or cells: cultured neonatal rat ventricular cardiomyocytes
# T1 sequence (P09216 1-737): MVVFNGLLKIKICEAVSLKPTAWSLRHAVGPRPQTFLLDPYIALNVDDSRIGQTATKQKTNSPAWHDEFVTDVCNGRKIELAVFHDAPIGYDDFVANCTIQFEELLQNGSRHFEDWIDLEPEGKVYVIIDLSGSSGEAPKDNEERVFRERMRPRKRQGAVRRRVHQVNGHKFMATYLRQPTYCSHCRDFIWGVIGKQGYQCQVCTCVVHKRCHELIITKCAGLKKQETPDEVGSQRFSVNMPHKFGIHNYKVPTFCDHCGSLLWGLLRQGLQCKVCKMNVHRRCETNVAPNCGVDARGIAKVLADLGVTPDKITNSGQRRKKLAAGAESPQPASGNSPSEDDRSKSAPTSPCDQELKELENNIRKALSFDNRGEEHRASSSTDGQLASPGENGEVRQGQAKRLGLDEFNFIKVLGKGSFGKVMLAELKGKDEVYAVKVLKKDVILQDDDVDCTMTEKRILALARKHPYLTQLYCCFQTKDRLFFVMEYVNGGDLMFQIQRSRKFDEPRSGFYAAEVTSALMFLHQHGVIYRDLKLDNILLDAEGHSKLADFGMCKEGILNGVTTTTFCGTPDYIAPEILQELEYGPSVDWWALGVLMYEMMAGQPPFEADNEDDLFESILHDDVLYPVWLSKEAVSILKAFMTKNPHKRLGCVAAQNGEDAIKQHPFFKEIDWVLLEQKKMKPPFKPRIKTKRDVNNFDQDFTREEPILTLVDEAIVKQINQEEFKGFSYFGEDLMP
# Experimental: (§5) rPMT selectively activates nPKC isoforms. Cardiomyocyte cultures were incubated in culture medium without or with NE (10 μM), rPMT (400 ng/ml) or PMA (100 nM) for 24 hr (Panels A and C) or 5 min (Panel B). Soluble extracts were prepared and separated by SDS-PAGE followed by immunodetection of total PKC isoform abundance with antibodies that are specific for the individual PKC isoforms (Panel A), or phosphorylated forms of PKC (largely PKCε) with a pan-phospho-PKC antibody (Panels B and C), as described in Methods below. GF109203 was included at 5 μM 30 min prior to stimulation as indicated.
# as §4
# [5] = test system: PKC isoforms; experiment: Immunoblot of PKC isoform partitioning and down-regulation in cardiomyocytes; type: cell-based, rat; conditions: 24 hr experiments
# Experimental: as §5, with “Cardiomyocyte cultures were incubated in culture medium without or with NE (10 μM), rPMT (400 ng/ml) or PMA (100 nM) for 24 hr (Panels A and C) or 5 min (Panel B).” left out
# (§6) Cells were maintained in culture in the presence of 10% FCS for 96 hr and then switched to serum-free medium for 24 hr prior to the addition of agonists as indicated. For PKC, extracts were prepared and subjected to SDS-PAGE to resolve individual isoforms according to methods described previously (14).
# as §3
# [6] = test system: PKCδ and PKCε; experiment: Immunoblot of nPKC isoform abundance in cardiomyocytes; type: cell-based, rat; conditions: 24 hr stimulation
# Experimental: as §5, §6, §3
# [7] = test system: cardiomyocytes; experiment: Cardiomyocyte growth: sarcomeric organization and cell size; type: cell-based, rat; conditions: rPMT 400 ng/ml or NE 10 μM, 48 hr, serum-free
# Experimental: (§7) rPMT mimics the effect of norepinephrine to promote cardiomyocyte hypertrophy. Cardiomyocytes were cultured in serum-free medium without or with rPMT (400 ng/ml) or norepinephrine (NE, 10 μM) for 48 hr. Cardiomyocytes were fixed, permeabilized, and stained with monoclonal anti-α-actinin sarcomeric (Panel A, magnification×100) or subjected to Northern blot analysis for measurements of steady-state ANF mRNA expression (Panel B). Effects of rPMT (black bars) and NE (gray bars) vs. vehicle (white bars) on sarcomeric organization (Panel C), cell size (Panel D), and protein synthesis (Panel E) are illustrated (n=3 for each).
# Cardiomyocyte growth was assessed by measuring cell surface area by digitized image analysis. For each experimental point, 7-10 frames/dish were recorded at 40× magnification with a video camera attached to a Nikon microscope which was calibrated with a micrometer.
# Cardiomyocytes were grown on slides precoated with fibronectin. After treatment, cells were fixed with cold methanol and permeabilized with 0.1% Triton X-100 and 0.2% BSA. Cells were incubated with α-actinin monoclonal antibody overnight at 4° C. followed by anti-mouse IgG-Cy3-labeled antibody for 30 min at room temperature. Fluorescence microscopy images were obtained at 100× magnification.
# [8] = test system: PKCα and PKCλ; experiment: Immunoblot of PKCα/PKCλ abundance and distribution in cardiomyocytes; type: cell-based, rat; conditions: 24 hr stimulation
# Experimental: as §5, §6, §3
# [9] = test system: ANF mRNA; experiment: Northern blot analysis of ANF mRNA in cardiomyocytes; type: cell-based, rat; conditions: rPMT 400 ng/ml or NE 10 μM, 48 hr, serum-free
# Experimental: as §7
# Total RNA from neonatal rat cardiomyocytes were isolated by using a Qiagen kit according to manufacturer's instructions. A rat ANF cDNA probe (˜600 bp) was labeled with [^32P]dCTP. 10 μ/g of total RNA was separated on a 1% agarose gel and transferred to a nylon membrane (Amersham). Prehybridization and hybridization were performed according to standard methods. Normalization of signals was performed with a glyceraldehyde-3-phosphate dehydrogenase probe. Signals were detected by Phosphorimage analysis.
# [10] = test system: cardiomyocytes; experiment: Protein synthesis ([3H]phenylalanine incorporation) in cardiomyocytes; type: cell-based, rat; conditions: rPMT 400 ng/ml or NE 10 μM, 48 hr, serum-free
# Experimental: as §7
# As a second index of cardiomyocyte growth, relative rates of protein synthesis were measured as radiolabeled phenylalanine incorporation into cell protein. Cells were stimulated in serum-free medium with agonists (or vehicle as control) for 48 hr at 37° C. The medium was replaced with serum-free medium containing [^3H]phenylalanine (0.1 μCi/ml) and non-radioactive phenylalanine (0.3 mM, to minimize variations in the specific activity of the precursor pool responsible for protein synthesis) during the final 24 hr of stimulation. Cells were rinsed with PBS and incubated in 10% trichloroacetic acid for 30 min on ice. […] Aliquots of the SDS-soluble protein were counted in 5 ml of scintillant.
# [11] = test system: p38-MAPK; experiment: Phospho-p38 MAP kinase Western blot in cardiomyocytes; type: cell-based, rat; conditions: rPMT 24 hr; sorbitol 5 min positive control
# Experimental: as §1, §3
# [12] = test system: JNK; experiment: Phospho-JNK Western blot in cardiomyocytes; type: cell-based, rat; conditions: rPMT 24 hr; sorbitol 5 min positive control
# Experimental: as §1, §3
compound,measurement,setting,value
"COc1cc2ncnc(Nc3cccc(Cl)c3)c2cc1OC [AG1478, reference compound]",effect on EGF receptor-mediated ERK phosphorylation,"[1]; AG1478 2 μM, EGF 50 ng/ml 5 min",effectively blocks
same,effect on ERK phosphorylation/activation by rPMT,[1],only a very minor reduction
same,effect on ERK activation by EGF,[2],marked effect to prevent ERK activation
same,effect on ERK activation by rPMT,[2],marked effect to prevent ERK activation
"CN(C)CCCn1cc(C2=C(c3c[nH]c4ccccc34)C(=O)NC2=O)c2ccccc21 [GF109203, reference compound]",effect on inhibitory modulation of AKT phosphorylation by PMA,"[3]; GF109203 5 μM, 5 min PMA",prevented
same,effect on appearance of the more highly phosphorylated PKC-ε band induced by NE or PMA,"[4]; inhibitor 5 μM, 30 min prior to stimulation",prevented
same,inhibition of PMA-dependent down-regulation of PKC isoforms,[5],did not
same,effect on ERK phosphorylation/activation by rPMT,[1],markedly inhibited
"COc1ccc2c(c1)c(C1=C(c3c[nH]c4ccccc34)C(=O)NC1=O)cn2CCCN(C)C [Go6983, reference compound]",effect on negative regulation of AKT by rPMT,"[3]; Go6983 5 μM, 24 hr",abrogates
same,inhibition of PMA-dependent down-regulation of PKC isoforms,[5],completely inhibited
"NC[C@H](O)c1ccc(O)c(O)c1 [NE, norepinephrine, reference compound]",abundance of PKCδ and PKCε in the soluble fraction,[6],significantly reduce
same,basal AKT phosphorylation after acute treatment,[3]; 5 min,not
same,PKC-ε phosphorylation/activation (phospho-PKC band pattern),[4],"slower mobility, more-highly phosphorylated species"
same,cell size (cellular enlargement),[7],induce marked cellular enlargement
same,myofibrillar (sarcomeric) organization,[7],promote myofibrillar organization
same,abundance and subcellular distribution of PKCα and PKCλ,[8],is not altered
same,ANF mRNA expression,[9],induce ANF mRNA expression
same,[3H]phenylalanine incorporation (protein synthesis),[10],enhance [^3H]phenylalanine incorporation
"CCCCCCCCCCCCCC(=O)O[C@@H]1[C@@H](C)[C@@]2(O)[C@@H](C=C(CO)C[C@]3(O)C(=O)C(C)=C[C@@H]23)[C@@H]2C(C)(C)[C@]12OC(C)=O [PMA, reference compound]",basal AKT phosphorylation after acute treatment,[3]; 5 min,reduce basal AKT phosphorylation
same,basal AKT phosphorylation after 24 hr treatment,"[3]; 24 hr, relative to control cultures",reduced
same,phospho-PKC immunoreactivity during pharmacologic down-regulation,[4]; 24 hrs,drastically reduced
same,PKC-ε phosphorylation/activation (phospho-PKC band pattern),[4],"slower mobility, more-highly phosphorylated species"
"OC[C@@H](O)[C@@H](O)[C@H](O)[C@@H](O)CO [sorbitol, reference compound]",magnitude of p38-MAPK activation,[11],strong activation
same,magnitude of JNK activation,[12],strong activation
EGF: epidermal growth factor,AKT activation in control cultures,"[3]; EGF 50 ng/ml, 5 min",robust
